From patent publication US20100298141A1, “SUBSTITUTED PYRIDINE N-OXIDE HERBICIDES” (E. I. DU PONT DE NEMOURS AND COMPANY, priority 2007, published 2010)

Legend:
corn [1] = assay: Test A pre-/postemergence greenhouse test; type: in vivo, Zea mays; details: for Corn plant response rating: 0 to 100 scale
Summary of the method: (§1)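 Visual injury ratings against untreated controls, taken roughly ten days after treatment in greenhouse. Plants were sprayed postemergence at one- to two-leaf stage (2–10 cm tall); at the same time, seeded loam/sand soil received a directed preemergence spray. Formulation: non-phytotoxic solvent mixture with surfactant.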

pigweed = assay: Test C pre-/postemergence test; type: in vivo, Amaranthus retroflexus; details: Preemergence
Summary of the method: (§2)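 Compounds in a non-phytotoxic solvent with surfactant applied preemergence to seeded pots and, at the same time, postemergence to plants 2–18 cm tall (1- to 4-leaf stage). Paddy tests: pots flooded to 3 cm, compound applied into the water, depth held throughout.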

johnsongrass = assay: Test C pre-/postemergence test; type: in vivo, Sorghum halepense; details: Preemergence
Summary of the method: as §2

umbrella sedge = assay: Test C flooded paddy test; type: in vivo, Cyperus difformis; details: Flood
Summary of the method: (§3)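 Test compounds are applied straight into paddy water held 3 cm above the soil surface, with that flood maintained for the whole test. After 13 to 15 days in the greenhouse, each species is scored visually relative to controls.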

yellow nutsedge = assay: Test C pre-/postemergence test; type: in vivo, Cyperus esculentus; details: Preemergence
Summary of the method: as §2

Italian ryegrass = assay: Test C pre-/postemergence test; type: in vivo, Lolium multiflorum; details: Preemergence
Summary of the method: as §2

green foxtail = assay: Test C pre-/postemergence test; type: in vivo, Setaria viridis; details: Preemergence
Summary of the method: as §2

bermudagrass = assay: Test C pre-/postemergence test; type: in vivo, Cynodon dactylon
Summary of the method: as §2

corn [2] = assay: Test C pre-/postemergence test; type: in vivo, Zea mays
Summary of the method: as §2

crabgrass [3] = assay: Test A pre-/postemergence greenhouse test; type: in vivo, Digitaria sanguinalis; details: for Crabgrass, Large plant response rating: 0 to 100 scale
Summary of the method: as §1

Goosegrass = assay: Test C pre-/postemergence test; type: in vivo, Eleusin indica; details: Preemergence
Summary of the method: as §2

barnyardgrass [4] = assay: Test C flooded paddy test; type: in vivo, Echinochloa crus-galli; details: Flood
Summary of the method: as §3

soybean = assay: Test C pre-/postemergence test; type: in vivo, Glycine max; details: Preemergence
Summary of the method: as §2

barnyardgrass [5] = assay: Test A pre-/postemergence greenhouse test; type: in vivo, Echinochloa crus-galli; details: for Barnyardgrass plant response rating: 0 to 100 scale
Summary of the method: as §1

velvetleaf = assay: Test A pre-/postemergence greenhouse test; type: in vivo, Abutilon theophrasti; details: for Velvetleaf plant response rating: 0 to 100 scale
Summary of the method: as §1

duck salad = assay: Test C flooded paddy test; type: in vivo, Heteranthera limosa; details: Flood
Summary of the method: as §3

crabgrass [6] = assay: Test C pre-/postemergence test; type: in vivo, Digitaria sanguinalis; details: Preemergence
Summary of the method: as §2

[7] = Postemergence, 125 g ai/ha, 0 is no effect, 100 is complete control
[8] = Postemergence, 500 g ai/ha, 0 is no effect, 100 is complete control
[9] = Preemergence, 125 g ai/ha, 0 no effect, 100 complete control
[10] = Preemergence, 500 g ai/ha, 0 to 100 scale where 0 is no effect and 100 is complete control
[11] = 31 g ai/ha, scale 0 to 100 (0 no effect, 100 complete control)
[12] = 62 g ai/ha, scale 0 to 100, 0 no effect, 100 complete control, 13 to 15 days
[13] = 125 g ai/ha, scale 0 to 100, 0 no effect, 100 complete control, 13 to 15 days
[14] = Preemergence, 31 g ai/ha, scale 0 to 100 (0 no effect, 100 complete control)
[15] = preemergence, 125 g ai/ha, scale 0 (no effect) to 100 (complete control)
[16] = 250 g ai/ha, scale 0 to 100 (0 no effect, 100 complete control)

Cc1cc[n+]([O-])c([S+]([O-])Cc2c(C(F)(F)F)nn(C)c2Cl)c1 (racemic) [Compound 20]
85: Plant response rating, Sedge, Umbrella (umbrella sedge; [13]) | Plant response rating, Sedge, Umbrella (umbrella sedge; 250 g ai/ha, scale 0 to 100, 0 no effect, 100 complete control, 13 to 15 days) | Bermudagrass plant response rating (bermudagrass; 62 g ai/ha, Preemergence, scale 0 to 100 (0 no effect, 100 complete control)) | Plant response rating (0 to 100), Corn (corn [2]; Preemergence, 250 g ai/ha) | Plant response rating, Goosegrass (Goosegrass; [11]) | Plant response rating, Crabgrass, Large (crabgrass [6]; [11])
30: Corn plant response rating (corn [1]; [9]) | Plant response rating, Ryegrass, Italian (Italian ryegrass; [11]) | Plant response rating, Barnyardgrass (barnyardgrass [4]; [13]) | Velvetleaf plant response rating (velvetleaf; [7])
70: Corn plant response rating (corn [1]; [8]) | Plant response rating, Barnyardgrass (barnyardgrass [4]; [16]) | Barnyardgrass plant response rating (barnyardgrass [5]; [9])
40: Crabgrass, Large plant response rating (crabgrass [3]; [7]) | Barnyardgrass plant response rating (barnyardgrass [5]; [7])
55: Plant response rating, Bermudagrass (bermudagrass; [14])
50: Corn plant response rating (corn [2]; [15])
98: Plant response rating, Foxtail, Green (green foxtail; [11])
80: Plant response rating, Pigweed (pigweed; [11]) | Johnsongrass plant response rating (johnsongrass; 62 g ai/ha, scale 0 to 100) | Crabgrass, Large plant response rating (crabgrass [3]; [8]) | Crabgrass, Large plant response rating (crabgrass [3]; [9]) | Barnyardgrass plant response rating (barnyardgrass [5]; [8])
100: Pigweed plant response rating (pigweed; 62 g ai/ha, scale 0 to 100) | Plant response rating (0 to 100), Johnsongrass (johnsongrass; 250 g ai/ha) | Foxtail, Green plant response rating (green foxtail; 62 g ai/ha, scale 0 to 100) | Plant response rating (0 to 100), Foxtail, Green (green foxtail; 250 g ai/ha) | Plant response rating (0 to 100), Bermudagrass (bermudagrass; Preemergence, 250 g ai/ha) | Bermudagrass plant response rating (bermudagrass; [15]) | Plant response rating, Crabgrass, Large (crabgrass [3]; [10]) | Goosegrass plant response rating (Goosegrass; 62 g ai/ha, scale 0 to 100) | Plant response rating (0 to 100), Goosegrass (Goosegrass; 250 g ai/ha) | Plant response rating, Barnyardgrass (barnyardgrass [5]; [10]) | Crabgrass, Large plant response rating (crabgrass [6]; 62 g ai/ha, scale 0 to 100) | Plant response rating (0 to 100), Crabgrass, Large (crabgrass [6]; 250 g ai/ha)
75: Plant response rating, Ducksalad (duck salad; [16])
0: Corn plant response rating (corn [1]; [7]) | Plant response rating, Sedge, Umbrella (umbrella sedge; [11]) | Plant response rating, Sedge, Umbrella (umbrella sedge; [12]) | Plant response rating, Nutsedge, Yellow (yellow nutsedge; [11]) | Plant response rating, Corn (corn [2]; [14]) | Plant response rating, Barnyardgrass (barnyardgrass [4]; [11]) | Plant response rating, Barnyardgrass (barnyardgrass [4]; [12]) | Soybean plant response rating (soybean; 62 g ai/ha, scale 0 to 100) | Plant response rating, Soybean (soybean; [11]) | Velvetleaf plant response rating (velvetleaf; [9]) | Plant response rating, Ducksalad (duck salad; [11]) | Plant response rating, Ducksalad (duck salad; [12]) | Plant response rating, Ducksalad (duck salad; [13])
20: Corn plant response rating (corn [2]; 62 g ai/ha, Preemergence, scale 0 to 100)
60: Plant response rating, Corn (corn [1]; [10]) | Plant response rating, Johnsongrass (johnsongrass; [11]) | Ryegrass, Italian plant response rating (Italian ryegrass; 62 g ai/ha, scale 0 to 100) | Velvetleaf plant response rating (velvetleaf; [8]) | Plant response rating, Velvetleaf (velvetleaf; [10])
10: Nutsedge, Yellow plant response rating (yellow nutsedge; 62 g ai/ha, scale 0 to 100)
